Biological target: GMPPNP-loaded KRAS G12C (Homo sapiens, UniProt P01116, G12C)
Assay: KRAS G12C RAF Disruption Assay (HTRF)
Format: biochemical
Conditions: recombinant GMPPNP-loaded KRAS G12C (5 nM), 20 min with compound; GST-RAF1 RBD (9 nM); HTRF signal; read-out: KRASG12C RAF Disruption Assay (IC50)
Procedure: KRAS^G12C RAF Disruption Assay
This is a functional assay that measures activity of compounds against KRAS-G12C^(ON), i.e., the active form of KRAS G12C. Recombinant GMPPNP-loaded KRAS G12C (5 nM) was treated with compound at room temperature for 20 minutes in assay buffer (50 mM Tris pH 7.5, 100 mM NaCl, 1 mM MgCl2, 1 mM DTT, 100ug/ml BSA). Recombinant GST-RAF1 RBD (9 nM) was added, and the reaction mixture was incubated for 20 minutes. SA-Tb (0.25 nM) was added, and the reaction mixture was incubated for 3 hours. HTRF signal was measured (PerkinElmer Envision), the signal ratio (λem 520/λem 495) was calculated, and IC50 values were calculated from the dose-response curve.

GMPPNP-loaded KRAS G12C, sequence (P01116 1-188 isoform P01116-2 G12C): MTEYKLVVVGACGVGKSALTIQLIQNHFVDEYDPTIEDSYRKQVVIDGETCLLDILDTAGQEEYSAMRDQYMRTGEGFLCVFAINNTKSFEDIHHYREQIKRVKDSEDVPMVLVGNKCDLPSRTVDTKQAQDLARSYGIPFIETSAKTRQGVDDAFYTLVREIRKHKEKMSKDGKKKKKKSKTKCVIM

IC50	Structure (SMILES)
130 nM	CN1CCC[C@H]1COc1nc(N2CCN(C(=O)/C(F)=C/c3nccs3)[C@@H](CC#N)C2)c2cnc(-c3cccc4ccc(F)cc34)c(F)c2n1 [Example 37, 2-((S)-1-((Z)-2-fluoro-3-(thiazol-2-yl)acryloyl)-4-(8-fluoro-7-(7-fluoronaphthalen-1-yl)-2-(((S)-1-methylpyrrolidin-2-yl)methoxy)pyrido[4,3-d]pyrimidin-4-yl)piperazin-2-yl)acetonitrile]
57 nM	N#CC[C@H]1CN(c2nc(OC[C@@]34CCCN3C[C@H](F)C4)nc3c(F)c(-c4ccccc4C4CCC4)ncc23)CCN1C(=O)/C(F)=C/c1ccccn1 [Compound 81, 2-((2S)-4-(7-(2-cyclobutylphenyl)-8-fluoro-2-(((2R, 7aS)-2-fluorotetrahydro-1H-pyrrolizin-7a(5H)-yl)methoxy)pyrido[4,3-d]pyrimidin-4-yl)-1-((Z)-2-fluoro-3-(pyridin-2-yl)acryloyl)piperazin-2-yl)acetonitrile]
760 nM	N#CC[C@H]1CN(c2nc(OC[C@@]34CCCN3C[C@H](F)C4)nc3c(F)c(-c4cc(F)ccc4F)ncc23)CCN1C(=O)/C(F)=C/c1nccs1 [Example 41, 2-((S)-4-(7-(2,5-difluorophenyl)-8-fluoro-2-(((2R, 7aS)-2-fluorotetrahydro-1H-pyrrolizin-7a(5H)-yl)methoxy)pyrido[4,3-d]pyrimidin-4-yl)-1-((Z)-2-fluoro-3-(thiazol-2-yl)acryloyl)piperazin-2-yl)acetonitrile]
110 nM	C#Cc1c(F)ccc2cccc(-c3ncc4c(N5CCN(C(=O)/C(F)=C/c6ncccn6)C[C@@H]5C)nc(OC[C@@]56CCCN5C[C@H](F)C6)nc4c3F)c12 [Compound 90, (Z)-1-((S)-4-(7-(8-ethynyl-7-fluoronaphthalen-1-yl)-8-fluoro-2-(((2R, 7aS)-2-fluorotetrahydro-1H-pyrrolizin-7a(5H)-yl)methoxy)pyrido[4,3-d]pyrimidin-4-yl)-3-methylpiperazin-1-yl)-2-fluoro-3-(pyrimidin-2-yl)prop-2-en-1-one]
440 nM	N#CC[C@H]1CN(c2nc(OC[C@@]34CCCN3C[C@H](F)C4)nc3c(F)c(-c4cccc(O)c4)ncc23)CCN1C(=O)/C(F)=C/c1nccs1 [Example 72, 2-((S)-4-(8-fluoro-2-(((2R, 7aS)-2-fluorotetrahydro-1H-pyrrolizin-7a(5H)-yl)methoxy)-7-(3-hydroxyphenyl)pyrido[4,3-d]pyrimidin-4-yl)-1-((Z)-2-fluoro-3-(thiazol-2-yl)acryloyl)piperazin-2-yl)acetonitrile]
75 nM	N#CC[C@H]1CN(c2nc(OC[C@@]34CCCN3C[C@H](F)C4)nc3c(F)c(-c4ccccc4C(F)(F)F)ncc23)CCN1C(=O)/C(F)=C/c1ccccn1 [Example 33, 2-((S)-4-(8-fluoro-2-(((2R, 7aS)-2-fluorotetrahydro-1H-pyrrolizin-7a(5H)-yl)methoxy)-7-(2-(trifluoromethyl)phenyl)pyrido[4,3-d]pyrimidin-4-yl)-1-((Z)-2-fluoro-3-(pyridin-2-yl)acryloyl)piperazin-2-yl)acetonitrile]
1800 nM	C#Cc1cccc2cccc(-c3ncc4c(N(C)C5CCN(C(=O)/C(F)=C/c6nccs6)C5C)nc(OC[C@@]56CCCN5C[C@H](F)C6)nc4c3F)c12 (single isomer, unassigned) [Example 73 cis isomer 2]
1100 nM	N#CC[C@H]1CN(c2nc(OC[C@@]34CCCN3C[C@H](F)C4)nc3c(F)c(-c4cc(F)ccc4C(F)F)ncc23)CCN1C(=O)/C(F)=C/c1nccs1 [Example 43, 2-((S)-4-(7-(2-(difluoromethyl)-5-fluorophenyl)-8-fluoro-2-(((2R, 7aS)-2-fluorotetrahydro-1H-pyrrolizin-7a(5H)-yl)methoxy)pyrido[4,3-d]pyrimidin-4-yl)-1-((Z)-2-fluoro-3-(thiazol-2-yl)acryloyl)piperazin-2-yl)acetonitrile]
37 nM	C#Cc1c(F)ccc2cccc(-c3ncc4c(N5CCN(C(=O)/C(F)=C/c6ccccn6)C[C@@H]5C)nc(OC[C@@]56CCCN5C[C@H](F)C6)nc4c3F)c12 [Compound 89, (Z)-1-((S)-4-(7-(8-ethynyl-7-fluoronaphthalen-1-yl)-8-fluoro-2-(((2R, 7aS)-2-fluorotetrahydro-1H-pyrrolizin-7a(5H)-yl)methoxy)pyrido[4,3-d]pyrimidin-4-yl)-3-methylpiperazin-1-yl)-2-fluoro-3-(pyridin-2-yl)prop-2-en-1-one]
10 nM	C#Cc1cccc2cccc(-c3ncc4c(N5CCN(C(=O)/C(F)=C/c6cccnn6)CC5)nc(OC[C@@]56CCCN5C[C@H](F)C6)nc4c3F)c12 [Compound 127, (Z)-1-(4-(7-(8-ethynylnaphthalen-1-yl)-8-fluoro-2-(((2R, 7aS)-2-fluorotetrahydro-1H-pyrrolizin-7a(5H)-yl)methoxy)pyrido[4,3-d]pyrimidin-4-yl)piperazin-1-yl)-2-fluoro-3-(pyridazin-3-yl)prop-2-en-1-one]
760 nM	N#CC[C@H]1CN(c2nc(OC[C@@]34CCCN3C[C@H](F)C4)nc3c(F)c(-c4cc(F)ccc4C(F)F)ncc23)CCN1C(=O)/C(F)=C/c1ccccn1 [Example 42, 2-((S)-4-(7-(2-(difluoromethyl)-5-fluorophenyl)-8-fluoro-2-(((2R, 7aS)-2-fluorotetrahydro-1H-pyrrolizin-7a(5H)-yl)methoxy)pyrido[4,3-d]pyrimidin-4-yl)-1-((Z)-2-fluoro-3-(pyridin-2-yl)acryloyl)piperazin-2-yl)acetonitrile]

More lines, now with the values behind:

Structure (SMILES)	IC50
C#Cc1cccc2cccc(-c3ncc4c(N5CCC6C5CCN6C(=O)/C(F)=C/c5ccccn5)nc(OC[C@@]56CCCN5C[C@H](F)C6)nc4c3F)c12 (single isomer, unassigned) [Compound 107]	5600 nM
C#Cc1cccc2cccc(-c3ncc4c(N5CCC6(CCN6C(=O)/C(F)=C/c6ccccn6)C5)nc(OC[C@@]56CCCN5C[C@H](F)C6)nc4c3F)c12 (single isomer, unassigned) [Compound 102]	87 nM
C#Cc1ccc(F)c2cccc(-c3ncc4c(N5CCN(C(=O)/C(F)=C/c6ccccn6)CC5)nc(OC[C@@]56CCCN5C[C@H](F)C6)nc4c3F)c12 [Compound 96, (Z)-1-(4-(7-(8-ethynyl-5-fluoronaphthalen-1-yl)-8-fluoro-2-(((2R, 7aS)-2-fluorotetrahydro-1H-pyrrolizin-7a(5H)-yl)methoxy)pyrido[4,3-d]pyrimidin-4-yl)piperazin-1-yl)-2-fluoro-3-(pyridin-2-yl)prop-2-en-1-one]	110 nM
C#Cc1c(F)ccc2cccc(-c3ncc4c(N(C)[C@@H]5CCN(C(=O)/C(F)=C/c6ccccn6)C5)nc(OC[C@@]56CCCN5C[C@H](F)C6)nc4c3F)c12 [Compound 117, (Z)-1-((R)-3-((7-(8-ethynyl-7-fluoronaphthalen-1-yl)-8-fluoro-2-(((2R, 7aS)-2-fluorotetrahydro-IH-pyrrolizin-7a(5H)-yl)methoxy)pyrido[4,3-d]pyrimidin-4-yl)(methyl)amino)pyrrolidin-1-yl)-2-fluoro-3-(pyridin-2-yl)prop-2-en-1-one]	9 nM
C#Cc1c(F)ccc2cc(O)cc(-c3ncc4c(N5C[C@H]6CC[C@@H](C5)N6C(=O)/C(F)=C/c5ccc(C)cn5)nc(OC[C@@]56CCCN5C[C@H](F)C6)nc4c3F)c12 [Compound 6, (Z)-1-((1R, 5S)-3-(7-(8-ethynyl-7-fluoro-3-hydroxynaphthalen-1-yl)-8-fluoro-2-(((2R, 7aS)-2-fluorotetrahydro-1H-pyrrolizin-7a(5H)-yl)methoxy)pyrido[4,3-d]pyrimidin-4-yl)-3,8-diazabicyclo[3.2.1]octan-8-yl)-2-fluoro-3-(5-methylpyridin-2-yl)prop-2-en-1-one]	45 nM
CN(c1nc(OC[C@@]23CCCN2C[C@H](F)C3)nc2c(F)c(-c3cccc4cccc(C#N)c34)ncc12)[C@@H]1CCN(C(=O)/C(F)=C/c2ccccn2)C1 [Compound 113, 8-(8-fluoro-4-(((R)-1-((Z)-2-fluoro-3-(pyridin-2-yl)acryloyl)pyrrolidin-3-yl)(methyl)amino)-2-(((2R, 7aS)-2-fluorotetrahydro-1H-pyrrolizin-7a(5H)-yl)methoxy)pyrido[4,3-d]pyrimidin-7-yl)-1-naphthonitrile]	156 nM
C#Cc1c(F)c(F)cc2cccc(-c3ncc4c(N5CCN(C(=O)/C(F)=C/c6ccccn6)CC5)nc(OC[C@@]56CCCN5C[C@H](F)C6)nc4c3F)c12 [Compound 99, (Z)-1-(4-(7-(8-ethynyl-6,7-difluoronaphthalen-1-yl)-8-fluoro-2-(((2R, 7aS)-2-fluorotetrahydro-IH-pyrrolizin-7a(5H)-yl)methoxy)pyrido[4,3-d]pyrimidin-4-yl)piperazin-1-yl)-2-fluoro-3-(pyridin-2-yl)prop-2-en-1-one]	70 nM
C#Cc1c(F)ccc2cc(O)cc(-c3ncc4c(N5C[C@@]6(NC(=O)/C(F)=C/c7ccccn7)CC[C@@H]5C6)nc(OC[C@@]56CCCN5C[C@H](F)C6)nc4c3F)c12 [Compound 13, (Z)—N-((1R, 4R)-2-(7-(8-ethynyl-7-fluoro-3-hydroxynaphthalen-1-yl)-8-fluoro-2-(((2R, 7aS)-2-fluorotetrahydro-1H-pyrrolizin-7a(5H)-yl)methoxy)pyrido[4,3-d]pyrimidin-4-yl)-2-azabicyclo[2.2.1]heptan-4-yl)-2-fluoro-3-(pyridin-2-yl)acrylamide]	38 nM

From patent US20240067662A1, “KRAS INHIBITORS” (Bristol-Myers Squibb Company, priority 2022, published 2024)
